Laboratory results taken from US20090143279A1 (priority 2007, published 2009).
Read-outs that look alike come from different tables or passages of the source.

Columns and labels:
[1] = test system: mitochondrial membrane potential; format: cell-based, mouse
reactive oxygen species = format: cell-based, mouse
OXPHOS gene expression = format: cell-based, mouse
nuOXPHOS transcripts = format: cell-based, mouse
mtOXPHOS transcripts = format: cell-based, mouse
cytochrome c = format: cell-based, mouse
[2] = test system: cellular dehydrogenase activity
[3] = normalized composite Z-score vs mock-treated (DMSO) wells, Conc 20 μM
[4] = composite Z-score vs DMSO wells, Conc 20 μM
[5] = composite Z-score vs DMSO, Conc 20 μM
[6] = 20 μM, composite Z-score vs DMSO
[7] = 18.5 μM, composite Z-score vs DMSO

## NCCS [mercaptamine]
[1]
  ΔΨm: −0.724
Reactive oxygen species
  ROS: −0.661
OXPHOS gene expression
  GE-HTS: −1.175
nuOXPHOS transcripts
  nucOX: −0.980
mtOXPHOS transcripts
  mitoOX: −1.294
Cytochrome c
  cyt c: 0.320
C2C12 myotubes
  Viability: −0.271
[2]
  MTT: −0.085

## CC1=C2C(O)C(=O)OC3CC4C(C)(C)C(=O)C=C[C@]4(C)C(CC1)[C@]23C (stereo partly shown) [merogedunin]
[1]; [3]
  ΔΨm: −0.214
Reactive oxygen species; [3]
  ROS: 0.741
OXPHOS gene expression; [3]
  GE-HTS: −0.254
nuOXPHOS transcripts; [3]
  nucOX: −0.160
mtOXPHOS transcripts; [3]
  mitoOX: −0.350
Cytochrome c; [3]
  cyt c: 0.490
C2C12 myotubes; [3]
  Viability: −0.222
[2]; [3]
  MTT: −0.645

## CC(C)NCC(O)c1cc(O)cc(O)c1 (stereo not shown) [metaproterenol]
[1]; [4]
  ΔΨm: −1.005
Reactive oxygen species; [4]
  ROS: 2.154
OXPHOS gene expression; [4]
  GE-HTS: 0.086
nuOXPHOS transcripts; [4]
  nucOX: 0.138
mtOXPHOS transcripts; [4]
  mitoOX: −0.094
Cytochrome c
  cyt c: 0.339
Cytochrome c; [4]
  cyt c: 0.212
C2C12 myotubes; [4]
  Viability: 0.206
[2]; [4]
  MTT: −0.832

## C[C@H](N)[C@H](O)c1cccc(O)c1 [metaraminol]
[1]; [5]
  ΔΨm: −0.772
Reactive oxygen species; [5]
  ROS: 0.313
OXPHOS gene expression; [5]
  GE-HTS: −0.589
nuOXPHOS transcripts; [5]
  nucOX: −0.456
mtOXPHOS transcripts; [5]
  mitoOX: −0.745
Cytochrome c; [5]
  cyt c: 0.327
C2C12 myotubes; [5]
  Viability: 0.107
[2]; [5]
  MTT: −1.268

## C=C1c2cccc(O)c2C(=O)C2=C(O)[C@]3(O)C(=O)C(C(N)=O)=C(O)[C@@H](N(C)C)[C@@H]3[C@@H](O)[C@H]12 [methacycline, reference compound]
[1]; [4]
  ΔΨm: −1.616
Reactive oxygen species; [4]
  ROS: 1.083
OXPHOS gene expression; [4]
  GE-HTS: −0.340
nuOXPHOS transcripts; [4]
  nucOX: −0.600
mtOXPHOS transcripts; [4]
  mitoOX: 0.258
Cytochrome c
  cyt c: 0.020
Cytochrome c; [4]
  cyt c: 0.723
C2C12 myotubes; [4]
  Viability: −1.645
[2]; [4]
  MTT: −1.744

## CNC(=O)ON=C(C)SC [methomyl]
[1]; [5]
  ΔΨm: −0.493
Reactive oxygen species; [5]
  ROS: 0.231
OXPHOS gene expression; [5]
  GE-HTS: −0.703
nuOXPHOS transcripts; [5]
  nucOX: −0.805
mtOXPHOS transcripts; [5]
  mitoOX: −0.317
Cytochrome c; [5]
  cyt c: −0.007
C2C12 myotubes; [5]
  Viability: 1.361
[2]; [5]
  MTT: −1.481

## COc1c2occc2cc2ccc(=O)oc12 [methoxsalen]
[1]; [6]
  ΔΨm: −0.034
Reactive oxygen species; [6]
  ROS: 0.310
OXPHOS gene expression; [6]
  GE-HTS: −0.562
nuOXPHOS transcripts; [6]
  nucOX: −0.513
mtOXPHOS transcripts; [6]
  mitoOX: −0.489
Cytochrome c; [6]
  cyt c: −0.889
C2C12 myotubes; [6]
  Viability: 0.416
[2]; [6]
  MTT: −0.976

## COc1c2occc2cc2ccc(=O)oc12 [methoxy-8-psoralen]
[1]; [7]
  ΔΨm: 0.605
Reactive oxygen species; [7]
  ROS: 0.103
OXPHOS gene expression; [7]
  GE-HTS: 0.803
nuOXPHOS transcripts; [7]
  nucOX: 0.952
mtOXPHOS transcripts; [7]
  mitoOX: 0.340
Cytochrome c; [7]
  cyt c: 0.227
C2C12 myotubes; [7]
  Viability: 1.463
[2]; [7]
  MTT: −0.371

## COC(=O)c1c(C)cc(O)cc1O [methyl orsellinate]
[1]; [5]
  ΔΨm: −0.632
Reactive oxygen species; [5]
  ROS: 1.212
OXPHOS gene expression; [5]
  GE-HTS: −1.129
nuOXPHOS transcripts; [5]
  nucOX: −1.000
mtOXPHOS transcripts; [5]
  mitoOX: −1.146
Cytochrome c; [5]
  cyt c: 0.573
C2C12 myotubes; [5]
  Viability: −0.008
[2]; [5]
  MTT: 0.148

## COP(=S)(OC)Oc1ccc([N+](=O)[O-])cc1 [methyl parathione]
[1]
  ΔΨm: −0.353
Reactive oxygen species
  ROS: 0.218
OXPHOS gene expression
  GE-HTS: 0.500
nuOXPHOS transcripts
  nucOX: 0.500
mtOXPHOS transcripts
  mitoOX: 0.450
Cytochrome c
  cyt c: 0.414
C2C12 myotubes
  Viability: 1.967
[2]
  MTT: −0.341

## COc1c2c(cc3occ(-c4ccc5c(c4)OCO5)c(=O)c13)OC(C)(C)C=C2 [methyl robustone, reference compound]
[1]; [3]
  ΔΨm: 0.715
Reactive oxygen species; [3]
  ROS: −0.347
OXPHOS gene expression; [3]
  GE-HTS: 0.033
nuOXPHOS transcripts; [3]
  nucOX: 0.075
mtOXPHOS transcripts; [3]
  mitoOX: −0.063
Cytochrome c; [3]
  cyt c: 0.373
C2C12 myotubes; [3]
  Viability: 0.848
[2]; [3]
  MTT: −0.344

## C[C@H]1C[C@@H]2[C@H]([C@@H](O)C[C@@]3(C)[C@H]2CC[C@]3(O)C(=O)CO)[C@@]2(C)C=CC(=O)C=C12 [methylprednisolone]
[1]
  ΔΨm: −0.375
Reactive oxygen species
  ROS: 0.133
OXPHOS gene expression
  GE-HTS: −0.220
nuOXPHOS transcripts
  nucOX: −0.138
mtOXPHOS transcripts
  mitoOX: −0.270
Cytochrome c
  cyt c: −0.102
C2C12 myotubes
  Viability: −0.631
[2]
  MTT: −1.014

## Cc1cc(=O)[nH]c(=S)[nH]1 [methylthiouracil]
[1]; [6]
  ΔΨm: −0.553
Reactive oxygen species; [6]
  ROS: 0.815
OXPHOS gene expression; [6]
  GE-HTS: −0.029
nuOXPHOS transcripts; [6]
  nucOX: 0.146
mtOXPHOS transcripts; [6]
  mitoOX: −0.302
Cytochrome c; [6]
  cyt c: 0.846
C2C12 myotubes; [6]
  Viability: −0.235
[2]; [6]
  MTT: −0.633
